Paper PMC11510666, “Thiazolidinedione-Conjugated Lupeol Derivatives as Potent Anticancer Agents Through a Mitochondria-Mediated Apoptotic Pathway” (Molecules, 2024)
Where “and” joins values, the source holds several entries; their conditions need not be identical. Identical values can stand only once.

Legend:
HepG2 cells [1] = experiment: Mitochondrial membrane potential, JC-1 staining; type: cell-based, human
From the text: MMP depolarization is one of the landmark events of apoptosis. To investigate the impact of 12i on MMP depolarization in HepG2 cells, we used 5,5′,6,6,6,6′-tetrachloro-1,1′,3,3′-tetraethylioiodine carbocyan (JC-1) staining. When the mitochondrial membrane potential is high, JC-1 aggregates in the substrate to form a polymer (J-aggregates), which produces red fluorescence. When the mitochondrial membrane potential is low, JC-1 cannot accumulate in the mitochondrial matrix and exists as a monomer to produce green fluorescence.
HepG2 cells were inoculated into 6-well plates for 24 h, attached via cell adhesion, and then treated with 12i (0, 2, 4, and 8 μM) for 48 h. The cells were cleaned with PBS and treated with JC-1 solution at 25 °C for 20 min, and the data were gathered using a flow cytometer.
HepG2 cells were inoculated into 6-well plates for 24 h, attached via cell adhesion, and then treated with 12i (0, 2, 4, and 8 μM) for 48 h. The cells were cleaned with PBS and treated with JC-1 solution at 25 °C for 20 min, and the samples were collected and imaged using confocal microscopy.

human lung cancer A549 = experiment: MTT antiproliferative assay, A549; type: cell-based; details: 48 h, mean ± SD, three independent experiments
Description: (§1) These cell lines were cultured in Dulbecco's Modified Eagle Medium containing 10% (v/v) fetal bovine serum (FBS, Wisent) and 1% (v/v) Penicillin-Streptomycin Solution mixture (Beyotime, Shanghai, China) at 37 °C under 5% CO2. An MTT assay evaluated the cytotoxicity of lupeol derivatives toward the A549, MCF-7, HepG2, and LO2 cell lines. The cells were inoculated into 96-well plates (3 × 10^3 cells/well) and cultured for 24 h at 37 °C in 5% CO2. After that, a gradient concentration of the test drug was added to continue the incubation for 48 h. Subsequently, the MTT solution continued to incubate with the cells for 4 h. Afterward, the upper waste layer was discarded, and DMSO was added ([…], Tianjin, China). After the formazan completely dissolved, the absorbance of each well at 490 nm was measured with a microplate reader. The mean values were derived from three independent experiments.

HepG2 cells [2] = experiment: Annexin V-FITC/PI double staining, flow cytometry; type: cell-based, human; details: HepG2, 48 h, blank control 5.75%
Description: (§2) To further evaluate compound 12i-induced HepG2 cell apoptosis, HepG2 cells were treated with this compound (at 0, 2, 4, and 8 μM), followed by staining with Acridine Orange/Ethidium bromide (AO/EB). […] Subsequently, we used Annexin V-FITC/PI double staining to characterize the effect of compound 12i based on the total apoptosis rate of HepG2 cells.
HepG2 cells were inoculated into 6-well plates for 24 h, attached via cell adhesion, and then treated with 12i (0, 2, 4, and 8 μM) for 48 h. The cells were harvested and treated with Annexin V-FITC/PI staining solution, and the data were gathered using a flow cytometer (FACS Calibur, BD, Milpitas, CA, USA).

[3] = system: Bax, Bcl-2, cleaved caspase-7, cleaved caspase-9 in HepG2 cells; details: HepG2, 2, 4 and 8 μM, 48 h, Western blot
Description: The GAPDH expression level was used as an internal control group.
(§3) HepG2 cells were seeded in 6-well plates at a density of 1 × 10^6 overnight and treated with 12i (2, 4, and 8 μM) for 48 h. They were then washed twice with cooled PBS to remove the medium and lysed using a lysis buffer containing RIPA (Beyotime, Shanghai, China). The protein levels were quantified using a bicinchoninic acid protein assay kit (Beyotime, Shanghai, China). The proteins were separated via SDS-PAGE electrophoresis and transferred to PVDF membranes (Beyotime, Shanghai, China). After blocking with 5% skim milk for 2 h, the membranes were incubated with the primary antibody overnight at 4 °C, followed by 2 h with the specific secondary antibody. The antibodies were sourced commercially, including Bax (5023T, Cell Signaling Technology, Danvers, MA, USA), Bcl2 (3498T, Cell Signaling Technology, Danvers, MA, USA), Caspase-7 (12827T, Cell Signaling Technology, Danvers, MA, USA), Caspase-9 (9508T, Cell Signaling Technology, Danvers, MA, USA), Cleaved-Caspase-7 (8438T, Cell Signaling Technology, Danvers, MA, USA), Cleaved-Caspase-9 (7237T, Cell Signaling Technology, Danvers, MA, USA), GAPDH (2118T, Cell Signaling Technology, Danvers, MA, USA), PI3K (4249T, Cell Signaling Technology, Danvers, MA, USA), p-PI3K (4228T, Cell Signaling Technology, Danvers, MA, USA), AKT (4691T, Cell Signaling Technology, Danvers, MA, USA), p-AKT (4060T, Cell Signaling Technology, Danvers, MA, USA), mTOR (2972T, Cell Signaling Technology, Danvers, MA, USA). Immunoreactive bands were visualized using BeyoECL Plus (Beyotime, Shanghai, China) and scanned in a ChemiDoc MP Imaging System (Bio-Rad, Shanghai, China).

HepG2 cells [4] = details: HepG2, 2, 4 and 8 μM, 48 h, DCFH-DA
Description: After the cells were washed with PBS, the supernatant was removed and incubated with 500 μL of 10 μm/L DCFH-DA solution at 25 °C for 20 min, and the data were gathered using a flow cytometer.
After the cells were washed with PBS, the supernatant was removed and incubated with 500 μL of 10 μm/L DCFH-DA solution at 25 °C for 20 min, and the samples were collected and imaged using confocal microscopy.

[5] = system: human hepatocarcinoma HepG2; experiment: MTT antiproliferative assay, HepG2; type: cell-based
Description: as §1

HepG2 cells [6] = details: HepG2, 2, 4 and 8 μM, increasing concentration
Description: as §2

[7] = system: human breast cancer MCF-7; experiment: MTT antiproliferative assay, MCF-7; type: cell-based; details: 48 h, mean ± SD, three independent experiments
Description: as §1

human hepatic LO2 cells = system: human hepatic LO2 cells
Description: as §1

[8] = system: P-Akt, P-PI3K, P-mTOR in HepG2 cells; details: HepG2, 2, 4 and 8 μM, 48 h, Western blot, dose-dependent
Description: Therefore, Western blotting was conducted to determine the expression of the key proteins Akt, P-Akt, PI3K, P-PI3K, mTOR, and P-mTOR.
as §3

IC50 (human lung cancer A549): 10.1 ± 0.62 µM | IC50 ([5]; MTT, 48 h, mean ± SD, three independent experiments): 4.4 ± 0.02 µM | IC50 [7]: 8.74 ± 0.34 µM
Structure (SMILES): C=C(C)C1CCC2(C)CCC3(C)C(CCC4C5(C)CCC(OC(=O)NCCNC(=O)CN6C(=O)SC(=CC(C)C)C6=O)C(C)(C)C5CCC43C)C12 (centres unmarked) [Compound 12i, Lupeol-3-[(1-Ethylenediaminyl)-4]-5-(2-Methylpropylidene)-2,4-Thiazolidinedione]
effect on mitochondrial membrane potential (Δψm) (HepG2 cells [1]; HepG2, 2, 4 and 8 μM, JC-1 fluorescence microscopy): significantly reduce Δψm | monomer rate of JC-1 (HepG2 cells [1]; HepG2, 48 h, 8 μM, blank control 1.95%): 35.8% | total apoptosis rate (HepG2 cells [2]; 2 μM): 11.46% | total apoptosis rate (HepG2 cells [2]; 4 μM): 22.40% | total apoptosis rate (HepG2 cells [2]; 8 μM): 60.50% | Bax expression ([3]; GAPDH internal control): upregulate | Bcl-2 expression ([3]; GAPDH internal control): downregulate | cleaved caspase-7 expression level ([3]; dose dependently): activated | cleaved caspase-9 expression level ([3]; dose dependently): activated | ROS production (HepG2 cells [4]): induces ROS production dose-dependently | potency against HepG2 relative to lupeol ([5]; HepG2, IC50 lupeol / IC50 compound): 9.9 fold and 9.91 fold | morphological variations after AO/EB staining (HepG2 cells [6]): the green fluorescence gradually weakened and turned orange–red | cytotoxicity to human hepatic cell LO2 (in words) (human hepatic LO2 cells): weakly cytotoxic | IC50 (human hepatic LO2 cells; read-out: IC50 LO2, MTT, 48 h, mean ± SD, three independent experiments): 29.2 ± 0.53 µM | phosphorylation level of P-Akt [8]: reduce the phosphorylation levels | phosphorylation level of P-PI3K [8]: reduce the phosphorylation levels | phosphorylation level of P-mTOR [8]: reduce the phosphorylation levels
